Measured values as given in patent US20080200507A1, “Crystalline Non-Solvated Methanesulfonic Acid Salt of 1-(4-(2-Piperidinylethoxy)Phenoxy)-2-(3-Hydroxyphenyl)-6-Hydroxynaphthalene” (priority 2005, published 2008).
Structures can show the parent of a compound that is named as a salt.

Key:
[1] = molecular target: endogenous ER receptors in Ishikawa human endometrial tumor cells (Homo sapiens, UniProt P03372); experiment: Ishikawa Cell Proliferation Assay (alkaline phosphatase endpoint), agonist and antagonist mode; format: cell-based; details: read-out: agonist response (percentage efficacy versus tamoxifen)
Chain of endogenous ER receptors in Ishikawa human endometrial tumor cells (P03372 whole entry): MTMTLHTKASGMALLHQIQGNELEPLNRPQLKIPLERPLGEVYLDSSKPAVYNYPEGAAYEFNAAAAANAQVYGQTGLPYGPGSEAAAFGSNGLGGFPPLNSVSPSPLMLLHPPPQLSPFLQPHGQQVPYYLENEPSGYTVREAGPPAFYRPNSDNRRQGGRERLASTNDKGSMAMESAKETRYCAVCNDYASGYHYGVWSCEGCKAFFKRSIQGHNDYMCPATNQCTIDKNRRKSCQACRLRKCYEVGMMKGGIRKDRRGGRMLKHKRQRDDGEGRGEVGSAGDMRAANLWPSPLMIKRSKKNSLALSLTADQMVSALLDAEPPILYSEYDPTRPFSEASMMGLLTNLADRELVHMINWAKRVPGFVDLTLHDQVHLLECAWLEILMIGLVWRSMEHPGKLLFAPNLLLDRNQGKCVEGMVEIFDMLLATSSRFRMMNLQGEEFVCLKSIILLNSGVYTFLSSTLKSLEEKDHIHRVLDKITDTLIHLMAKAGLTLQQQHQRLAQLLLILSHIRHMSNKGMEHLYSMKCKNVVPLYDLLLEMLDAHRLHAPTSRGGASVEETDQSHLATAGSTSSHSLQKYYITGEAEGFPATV
Method: Ishikawa Cell Proliferation Assay:
This assay measures cell proliferation in both an agonist mode in the presence of a salt of the present invention alone, and in an antagonist mode in which the ability of a salt of the present invention to block estradiol stimulation of growth is measured. This assay utilizes Ishikawa human endometrial tumor cells and measures agonist and antagonist effects on endogenous ER receptors via an alkaline phosphatase endpoint (Littlefield et al., Endocrinology, 127:2757-2762, 1990). Alkaline phosphatase activity is measured as an endpoint for relative estrogenic stimuli in both an agonist mode and antagonist mode, where the ability of a test compound to block estradiol stimulatory activity is measured (Bramlett, K S, Burris, J., Steroid Biochem. Molec. Biol., 86:27-34, 2003). […]
The plates are dried for 5 minutes and frozen at −70° C. for at least 1 hour. […] After a twenty minute incubation, plates are read on a spectrophotometer at 405 nm. […] For the agonist mode, a percentage efficacy for the test compound is calculated versus the response to 100 nM tamoxifen alkaline phosphatase stimulation as: 100×(test compound-control)/(tamoxifen-control). For the antagonist mode, a percentage efficacy for the test compound is calculated versus E2 (1 nM) alone as: 100×(E2-test compound)/(E2-control).

[2] = test system: estrogen-induced response (uterine weight/body weight ratio) in female Sprague Dawley (SD) rats; experiment: 3-Day Rat Uterine Antagonist; format: in vivo; details: 72 h, oral, 3 days, with EE 0.1 mg/kg, two assays, same value on both occasions, read-out: ED50 (inhibition of estrogen-induced uterine weight response)
Method: 3-Day Rat Uterine Antagonist
Female Sprague Dawley (SD) rats, 6 per group and 19 to 21 days of age, are orally treated with ethinyl estradiol (EE; 0.1 mg/kg) and 10, 1, 0.1, or 0.01 mg/kg test compound for 3 days. Test compound is dissolved in 20% w/v β-hydroxycyclodextrin in water and administered by oral gavage in a volume of 0.2 mL daily (15 minutes prior to the EE gavage). Groups of 6 rats are also given vehicle as a negative control and EE alone as a positive control. The animals are fasted overnight following the final dose. On the following morning, the animals are weighed and then euthanized (by carbon dioxide asphyxiation) and the uteri are rapidly collected (via a midline ventral incision), stripped of adipose tissue, removed luminal fluid by blotting onto absorbant paper, and weighed.
Uterine weight/body weight ratios (UWR) are calculated for each animal. The percentage inhibition of the estrogen-induced response is then calculated by the following formula: percent inhibition=100×(UWREE−UWRtest compound/UWREE−UWRcontrol). ED50 values are derived from a semi-log regression analysis of the linear aspect of the dose response curve.

[3] = test system: ovariectomized SD female rats (uterine wet weight, BMC, BMD); experiment: 8-Week Mature OVX Rat Uterine and Bone Effects; format: in vivo
Method: 8-Week Mature OVX Rat Uterine and Bone Effects
Virgin 6-month-old, SD female rats (Harlan, Ind.) weighing about 270 g are randomized to treatment groups and bilateral ovariectomies are performed using isoflurane anesthesia. Treatment is initiated 3 days after ovariectomy. Groups are orally dosed each day for 8 weeks with GS II mesylate in a vehicle of 20% hydroxypropyl-β-cyclodextrin (Aldrich Chemical Co., Milwaukee, Wis.). Vertebrae and femora are excised at necropsy and the mid-transverse section of the lumbar vertebra L-4 and distal femur metaphysis is scanned in 50% ethanol/saline, using quantitative computed tomography (QCT) (Research M, Norland/Stratec, Pt. Atkinson, Wis.). Cross-sectional area (X-Area), bone mineral content (BMC, mg), and volumetric BMD (vBMD, mg/cm^3) are quantitated, using voxel dimensions of 148×148×500 μm as previously described (Sato M., Bone, 17:157S-162S, 1995). Bone measurements are carried out by computed tomography (CT) scans on the distal femur metaphysis (cancelous bone measurement) and the […] lumbar vertebrae (Sato, 1995 and Sato, et al., J. Med. Chem., 42:1-24, 1999).

[4] = Salt forms administered to monkeys, blood levels of GS II and its conjugates; format: in vivo; details: compared among crystalline acetate, mesylate, lactate and phosphate salts, methanesulfonate
Method: Four of these salts (the crystalline acetate, mesylate, lactate and phosphate salts of GS II) were administered to monkeys and blood levels of GS II and its conjugates were measured. […] Some additional physical properties of crystalline non-solvated GS II mesylate are disclosed below in Table 1.

[5] = Thermogravimetric analysis (volatiles / weight loss); format: physicochemical; details: 25 to 216° C.
[6] = Moisture adsorption / hygroscopicity; format: physicochemical
[7] = In situ salt screening, aqueous in situ solubility; format: physicochemical; details: crystalline salts
Description: In general, as aqueous solubility increases, the potential for absorption of the drug in the gut (and ultimate bioavailability) increases as well. Higher bioavailability can result in lower variability in clinical exposure and thus give the physician an advantage in correctly dosing-the patient within the therapeutic window. Using the aqueous in situ solubility as a guide, and the robustness of the same crystalline form isolated via automation, the crystalline mesylate, lactate, tartrate and phosphate salts of GS II were identified as candidates for further evaluation. Separately, the crystalline acetate salt of GS II was identified and also further characterized.

[8] = dose as low as 0.01 mg/kg, 8 weeks (distal femur metaphysis)

With `Oc1cccc(-c2ccc3cc(O)ccc3c2Oc2ccc(OCCN3CCCCC3)cc2)c1` [crystalline non-solvated GS II mesylate, 1-(4-(2-piperidinylethoxy)phenoxy)-2-(3-hydroxyphenyl)-6-hydroxynaphthalene, methanesulfonate] the Emax [1] was 13.8%, the ED50 [2] was 0.22 mg/kg and the “BMC changes in the vertebrae” value ([3]; 8 weeks, lumbar vertebra) was “statistical significance for BMC changes were not achieved”. The “BMD preservation in the vertebrae” value ([3]; 8 weeks, lumbar vertebra) was “BMD preservation was also seen”, the “uterine stimulation over OVX control” value ([3]; 10-mg/kg dose, 8 weeks, in comparison to ovary intact (sham operated) rats) was 8.7% and the “preservation of BMC” value [3, 8] was “significant preservation”. For the same compound, the “preservation of BMD” value [3, 8] was “significant preservation”, the “Changes in uterine wet weight” value ([3]; oral daily, after 8 weeks of treatment) was “minimal” and the “in vivo exposure of GS II (ng hr/ml of GS II and of its conjugates)” value ([4]; listed as crystalline mesylate salt) was “largest in vivo exposure”. The “in vivo exposure of GS II (ng hr/ml of GS II and of its conjugates)” value [4] was “significant in vivo exposure”, the “% Volatiles (Thermo Gravimetric Analysis)” value [5] was <1% (25 to 216° C.) and the hygroscopicity [6] was “non-hygroscopic”. For the same compound, the “% Moisture Adsorbed @80% RH” value ([6]; 80% RH) was less than 1%.

In the case of fumarate, the “in situ aqueous solubility” value [7] was “relatively low”.

For tosylate, the “in situ aqueous solubility” value [7] was “relatively low”.
